Test results reported in PMC4648982 (Chemistry Central Journal, 2015).
“Also recorded” adds a separate entry of the source. Counter-ions that a name gives are not always drawn. Like-named read-outs stand apart in the source and are kept apart here.

Target: jack bean urease (Canavalia ensiformis, UniProt P07374)
Assay: biochemical
Conditions: for urease inhibitory activity in words: in vitro assay, authors' verbal grading
Protocol: Reaction mixture comprising of 25μL of enzyme (jack bean urease) (1 unit/well) solution and 55 μL of phosphate buffers (4 mM) containing 100 mM urea were incubated with 5 μL of test compounds dissolved in methanol (0.5 mM concentration) at 30 °C for 15 min in 96-well plates. Urease activity was determined by measuring ammonia production using the indophenol method as described by Weather burn. Briefly, 45 μl each phenol reagent (1 % w/v phenol and 0.005 % w/v sodium nitroprussside) and 70 μL of alkali reagent(0.5 % w/v NaOH and 0.1 % active chloride NaOCl) were added to each well. The increasing absorbance at 630 nm was measured afther 50 min, using a microplate reader (Molecular Device, USA). All reactions were performed in triplicate in a final volume of 200 μL. The results (change in absorbance per min) were processed by using softMax Pro software (molecular Device, USA). The entire assays were performed at pH 6.8. Percentage inhibitions were calculated from the formula 100 − (ODtestwell/ODcontrol) × 100. Thiourea was used as the standard inhibitor of urease.

Chain of jack bean urease (P07374 whole entry, looked up): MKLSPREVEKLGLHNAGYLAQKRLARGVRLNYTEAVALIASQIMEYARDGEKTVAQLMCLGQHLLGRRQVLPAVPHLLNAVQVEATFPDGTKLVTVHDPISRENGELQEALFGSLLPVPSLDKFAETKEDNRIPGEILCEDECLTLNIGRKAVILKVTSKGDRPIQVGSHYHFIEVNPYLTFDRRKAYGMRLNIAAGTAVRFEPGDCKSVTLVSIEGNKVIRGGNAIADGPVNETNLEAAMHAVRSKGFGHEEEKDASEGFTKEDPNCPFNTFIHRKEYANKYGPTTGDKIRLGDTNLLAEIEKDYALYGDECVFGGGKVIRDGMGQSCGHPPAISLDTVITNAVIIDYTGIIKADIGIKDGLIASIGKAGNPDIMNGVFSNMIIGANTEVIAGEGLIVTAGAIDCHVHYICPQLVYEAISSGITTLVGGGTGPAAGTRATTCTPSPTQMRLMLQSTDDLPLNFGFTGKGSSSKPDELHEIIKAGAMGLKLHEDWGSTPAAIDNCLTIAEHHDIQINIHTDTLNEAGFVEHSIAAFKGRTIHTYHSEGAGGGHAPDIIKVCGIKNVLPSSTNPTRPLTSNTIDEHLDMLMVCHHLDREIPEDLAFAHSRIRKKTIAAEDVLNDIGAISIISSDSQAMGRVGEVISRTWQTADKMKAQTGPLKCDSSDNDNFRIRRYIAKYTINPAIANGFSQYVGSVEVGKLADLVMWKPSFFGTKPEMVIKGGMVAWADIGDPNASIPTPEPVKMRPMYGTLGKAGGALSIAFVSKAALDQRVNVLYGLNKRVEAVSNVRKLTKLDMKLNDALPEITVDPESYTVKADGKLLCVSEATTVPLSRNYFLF

Molecule	IC50	IC50 (jack bean urease, indophenol method, pH 6.8, 30 °C, 15 min incubation, triplicate, read-out: Urease inhibition IC50 ± SEM)	urease inhibitory activity in words
CC1(C)CC(=O)C(C(c2ccc(Cl)cc2)c2c(O)[nH]c(=O)[nH]c2=O)=C(O)C1 (centres unmarked) [Compound 5m, 5-((4-Chlorophenyl)(2-hydroxy-4,4-dimethyl-6-oxocyclohex-1-en-1-yl)methyl)-2,6-dioxo-1,2,3,6-tetrahydropyrimidin-4-olate diethylaminium salt]	65.9 ± 0.61 µM	–	–
2-((2-Hydroxy-4,4-dimethyl-6-oxocyclohex-1-en-1-yl)(m-tolyl)methyl)-5,5-dimethyl-3-oxocyclohex-1-enolate diethylaminium salt [Compound 5d]	–	51.3 ± 0.45 µM	–
CN(C)c1ccc(C(C2=C(O)CC(C)(C)CC2=O)c2c(O)n(C)c(=O)n(C)c2=O)cc1 (centres unmarked) [Compound 4t, 5-((2-Hydroxy-4,4-dimethyl-6-oxocyclohex-1-en-1-yl)(4-(dimethylamino)phenyl)methyl)-1,3-dimethyl-2,6-dioxo-1,2,3,6-tetrahydropyrimidin-4-olate diethylaminium salt]	142.1 ± 0.64 µM	–	least active; also recorded: inactivity
Cc1ccc(C(C2=C(O)CC(C)(C)CC2=O)c2c(O)[nH]c(=O)[nH]c2=O)cc1 (centres unmarked) [Compound 5p, 5-((2-Hydroxy-4,4-dimethyl-6-oxocyclohex-1-en-1-yl)(p-tolyl)methyl)-2,6-dioxo-1,2,3,6-tetrahydropyrimidin-4-olate diethylaminium salt]	27.4 ± 0.54 µM	–	–
CC1(C)CC(=O)C(C(c2ccc3ccccc3c2)c2c(O)[nH]c(=O)[nH]c2=O)=C(O)C1 (centres unmarked) [Compound 5r, 5-((2-Hydroxy-4,4-dimethyl-6-oxocyclohex-1-en-1-yl)(naphthalen-2-yl)methyl)-2,6-dioxo-1,2,3,6-tetrahydropyrimidin-4-olate diethylaminium salt]	82.8 ± 0.72 µM	–	–
CC1(C)CC(=O)C(C(C2=C(O)CC(C)(C)CC2=O)c2ccc([N+](=O)[O-])cc2)=C(O)C1 [Compound 5f, 2-((2-Hydroxy-4,4-dimethyl-6-oxocyclohex-1-en-1-yl)(4-nitrophenyl)methyl)-5,5-dimethyl-3-oxocyclohex-1-enolate diethylaminium salt]	106 ± 1.49 µM	–	inactivity
COc1ccc(C(C2=C(O)CC(C)(C)CC2=O)c2c(O)n(C)c(=O)n(C)c2=O)cc1 (centres unmarked) [Compound 4o, 5-((2-Hydroxy-4,4-dimethyl-6-oxocyclohex-1-en-1-yl)(4-methoxyphenyl)methyl)-1,3-dimethyl-2,6-dioxo-1,2,3,6-tetrahydropyrimidin-4-olate diethylaminium salt]	83 ± 0.66 µM	–	–
Cc1cccc(C(c2c(O)n(C)c(=O)n(C)c2=O)c2c(O)n(C)c(=O)n(C)c2=O)c1 [Compound 4b, 5,5′-(3-Tolylmethylene)bis(1,3-dimethylpyrimidine-2,4,6(1H,3H,5H)-trione) diethylaminium salt]	34.4 ± 1.57 µM	–	–
Cn1c(O)c(C(C2=C(O)CC(C)(C)CC2=O)c2ccccc2[N+](=O)[O-])c(=O)n(C)c1=O (centres unmarked) [Compound 4s, 5-((2-Hydroxy-4,4-dimethyl-6-oxocyclohex-1-en-1-yl)(1-nitrophenyl)methyl)-1,3-dimethyl-2,6-dioxo-1,2,3,6-tetrahydropyrimidin-4-olate diethylaminium salt]	110 ± 1.1 µM	–	inactivity
Cn1c(O)c(C(c2ccc(O)cc2)c2c(O)n(C)c(=O)n(C)c2=O)c(=O)n(C)c1=O [Compound 4f, 5,5′-((4-hydroxyphenyl)methylene)bis(6-hydroxy-1,3-dimethylpyrimidine-2,4(1H,3H)-dione) diethylaminium salt]	54.2 ± 0.83 µM	–	–
Cn1c(O)c(C(C2=C(O)CC(C)(C)CC2=O)c2cccc(Br)c2)c(=O)n(C)c1=O (centres unmarked) [Compound 4r, 5-((3-Bromophenyl)(2-hydroxy-4,4-dimethyl-6-oxocyclohex-1-en-1-yl)methyl)-1,3-dimethyl-2,6-dioxo-1,2,3,6-tetrahydropyrimidin-4-olate diethylaminium salt]	27.5 ± 0.19 µM	–	–
Cn1c(O)c(C(c2cccc(Br)c2)c2c(O)n(C)c(=O)n(C)c2=O)c(=O)n(C)c1=O [Compound 4e, 5,5′-((3-Bromophenyl)methylene)bis(1,3-dimethylpyrimidine-2,4,6(1H,3H,5H)-trione) diethylaminium salt]	27.5 ± 0.12 µM	–	–
Cn1c(O)c(C(C2=C(O)CC(C)(C)CC2=O)c2ccccc2)c(=O)n(C)c1=O (centres unmarked) [Compound 4m, 5-((2-Hydroxy-4,4-dimethyl-6-oxocyclohex-1-en-1-yl)(phenyl)methyl)-1,3-dimethyl-2,6-dioxo-1,2,3,6-tetrahydropyrimidin-4-olate diethylaminium salt]	39.3 ± 0.79 µM	–	–
CC1(C)CC(=O)C(C(C2=C(O)CC(C)(C)CC2=O)c2ccc3ccccc3c2)=C(O)C1 [Compound 5s, 2-((2-Hydroxy-4,4-dimethyl-6-oxocyclohex-1-en-1-yl)(naphthalen-2-yl)methyl)-5,5-dimethyl-3-oxocyclohex-1-enolate diethylaminium salt]	123.2 ± 0.37 µM	–	inactivity
COc1ccc(C(c2c(O)n(C)c(=O)n(C)c2=O)c2c(O)n(C)c(=O)n(C)c2=O)cc1 [Compound 4d, 5,5′-((4-Methoxyphenyl)methylene)bis(1,3-dimethylpyrimidine-2,4,6(1H,3H,5H)-trione) diethylaminium salt]	31.6 ± 0.79 µM	–	–
COc1ccc(C(C2=C(O)CC(C)(C)CC2=O)C2=C(O)CC(C)(C)CC2=O)cc1 [Compound 5e, 2-((2-Hydroxy-4,4-dimethyl-6-oxocyclohex-1-en-1-yl)(4-methoxyphenyl)methyl)-5,5-dimethyl-3-oxocyclohex-1-enolate diethylaminium salt]	39.8 ± 0.75 µM	–	–
Cn1c(O)c(C(C2=C(O)CC(C)(C)CC2=O)c2ccc(Cl)cc2)c(=O)n(C)c1=O (centres unmarked) [Compound 4p, 5-((4-Chlorophenyl)(2-hydroxy-4,4-dimethyl-6-oxocyclohex-1-en-1-yl)methyl)-1,3-dimethyl-2,6-dioxo-1,2,3,6-tetrahydropyrimidin-4-olate diethylaminium salt]	39.7 ± 0.7 µM	–	–
Cn1c(O)c(C(C2=C(O)CC(C)(C)CC2=O)c2c(Cl)cccc2Cl)c(=O)n(C)c1=O (centres unmarked) [Compound 4y, 5-((2,6-Dichlorophenyl)(2-hydroxy-4,4-dimethyl-6-oxocyclohex-1-en-1-yl)methyl)-1,3-dimethyl-2,6-dioxo-1,2,3,6-tetrahydropyrimidin-4-olate diethylaminium salt]	83.4 ± 1 µM	–	–
CC1(C)CC(=O)C(C(C2=C(O)CC(C)(C)CC2=O)c2c(Cl)cccc2Cl)=C(O)C1 [Compound 5g, 2-((2,6-Dichlorophenyl)(2-hydroxy-4,4-dimethyl-6-oxocyclohex-1-en-1-yl)methyl)-5,5-dimethyl-3-oxocyclohex-1-enolate diethylaminium salt]	170.7 ± 1.55 µM	–	least active; also recorded: inactivity
Cn1c(O)c(C(c2ccc3ccccc3c2)c2c(O)n(C)c(=O)n(C)c2=O)c(=O)n(C)c1=O [Compound 4h, 5,5′-(Naphthalen-2-ylmethylene)bis(1,3-dimethylpyrimidine-2,4,6(1H,3H,5H)-trione) diethylaminium salt]	40.3 ± 0.32 µM	–	–
CC1(C)CC(=O)C(C(C2=C(O)CC(C)(C)CC2=O)c2ccc(Cl)cc2)=C(O)C1 [Compound 5b, 2-((4-Chlorophenyl)(2-hydroxy-4,4-dimethyl-6-oxocyclohex-1-en-1-yl)methyl)-5,5-dimethyl-3-oxocyclohex-1-enolate diethylaminium salt]	29.7 ± 0.67 µM	–	–
